Measured values from patent US20260000656A1, “ANTIFUNGAL AGENTS WITH ENHANCED ACTIVITY IN ACIDIC PH” (Scynexis, Inc., priority 2017, published 2026).
In brackets after ≈: the same amount, converted by molar mass. Where two headings read alike, the source gives them in different places.

Test system: C. albicans isolates
Assay: Broth microdilution susceptibility (CLSI M27-A3) at different medium pH
Format: cell-based, Candida albicans
Conditions: Candida albicans, 24 h; for MIC50: read-out: MIC50; for MIC90: read-out: MIC90
Protocol: Ten strains each of C. glabrata and C. albicans vaginal isolates were tested. The strains were obtained from recent clinical trial patients with vulvovaginal candidiasis (VVC) prior to treatment. Candida strains were obtained from the Mycology Reference Library (MRL) at Case Western Reserve University School of Medicine, Ohio, United States.
Susceptibility testing was performed using a broth microdilution method, according to CLSI M27-A3 guidelines (CLSI. 2008. Reference Method for Broth Dilution Antifungal Susceptibility Testing of Yeasts; Approved Standard—Third Edition. Clinical and Laboratory Standards Institute, CLSI document M27-A3). Antifungals and concentrations tested were SCY-078 and micafungin (both at concentrations within the range of 0.015 to 8 μg/ml) and fluconazole (at concentrations within the range of 0.125 to 64 μg/ml). A 0.1-ml C. albicans and C. glabrata inoculum of 0.5-2.5×10^3 blastospores/ml in RPMI 1640 medium was added to each microdilution well. ATCC strains of Candida parapsilosis and Candida krusei QC isolates were also included concurrently to ensure quality control. Antifungal susceptibility testing was carried out for each isolate in RPMI 1640 at pH 7 (to mimic RPMI medium used in testing the susceptibility of yeast by the CLSI M-27A3 document), pH 5.7, and pH 4.5 (to mimic the pH of the vaginal cavity) by adjusting the pH of the media using NaOH or HCl. […] Agents Chemother., 43: 1383-1386 (1999).
[…] SCY-078 powder was manufactured by Avista, Laboratories, NC. Micafungin and fluconazole were sourced from LGM Pharma.

[1] = pH 7, 50% inhibition, pH 7.0, 24 h, 10 vaginal isolates
[2] = pH 7, 100% inhibition, pH 7.0, 24 hours, 10 isolates

## CC(C)[C@@H](C)[C@@]1(C)CC[C@]2(C)[C@H]3CC[C@@H]4[C@@]5(COC[C@]4(C)[C@@H](OC[C@](C)(N)C(C)(C)C)[C@H](n4ncnc4-c4ccncc4)C5)C3=CC[C@@]2(C)[C@@H]1C(=O)O [SCY-078]
pH 5.72, C. albicans MRL 34367, pH 5.72, 24 hours, read-out: MIC (100% inhibition)
  MIC: 0.5 µg/mL (≈ 0.685 µM)
pH 5.72, C. albicans MRL 34372, pH 5.72, 24 hours, read-out: MIC (50% inhibition)
  MIC: 0.25 µg/mL (≈ 0.342 µM)
pH 5.72, C. albicans MRL 34372, pH 5.72, 24 hours, read-out: MIC (100% inhibition)
  MIC: 0.25 µg/mL (≈ 0.342 µM)
pH 5.72, C. albicans MRL 34373, pH 5.72, 24 hours, read-out: MIC (50% inhibition)
  MIC: 0.25 µg/mL (≈ 0.342 µM)
pH 5.72, C. albicans MRL 34373, pH 5.72, 24 hours, read-out: MIC (100% inhibition)
  MIC: 0.25 µg/mL (≈ 0.342 µM)
pH 5.72, C. albicans MRL 34374, pH 5.72, 24 hours, read-out: MIC (50% inhibition)
  MIC: 0.125 µg/mL (≈ 0.171 µM)
pH 5.72, C. albicans MRL 34374, pH 5.72, 24 hours, read-out: MIC (100% inhibition)
  MIC: 0.25 µg/mL (≈ 0.342 µM)
pH 5.72, C. albicans MRL 34385, pH 5.72, 24 hours, read-out: MIC (50% inhibition)
  MIC: 0.25 µg/mL (≈ 0.342 µM)
pH 5.72, C. albicans MRL 34385, pH 5.72, 24 hours, read-out: MIC (100% inhibition)
  MIC: 0.5 µg/mL (≈ 0.685 µM)
pH 5.72, C. albicans MRL 34389, pH 5.72, 24 hours, read-out: MIC (50% inhibition)
  MIC: 0.25 µg/mL (≈ 0.342 µM)
pH 5.72, C. albicans MRL 34389, pH 5.72, 24 hours, read-out: MIC (100% inhibition)
  MIC: 0.25 µg/mL (≈ 0.342 µM)
pH 5.72, C. albicans MRL 34399, pH 5.72, 24 hours, read-out: MIC (50% inhibition)
  MIC: 0.25 µg/mL (≈ 0.342 µM)
pH 5.72, C. albicans MRL 34399, pH 5.72, 24 hours, read-out: MIC (100% inhibition)
  MIC: 0.25 µg/mL (≈ 0.342 µM)
pH 5.72, C. albicans MRL 34408, pH 5.72, 24 hours, read-out: MIC (50% inhibition)
  MIC: 0.25 µg/mL (≈ 0.342 µM)
pH 5.72, C. albicans MRL 34408, pH 5.72, 24 hours, read-out: MIC (100% inhibition)
  MIC: 2 µg/mL (≈ 2.74 µM)
pH 5.72, C. albicans MRL 34449, pH 5.72, 24 hours, read-out: MIC (50% inhibition)
  MIC: 0.25 µg/mL (≈ 0.342 µM)
pH 5.72, C. albicans MRL 34449, pH 5.72, 24 hours, read-out: MIC (100% inhibition)
  MIC: 0.25 µg/mL (≈ 0.342 µM)
[1]
  MIC50: 0.25 µg/mL (≈ 0.342 µM)
  MIC90: 0.5 µg/mL (≈ 0.685 µM)
[2]
  MIC50: 0.25 µg/mL (≈ 0.342 µM)
  MIC90: 0.5 µg/mL (≈ 0.685 µM)
pH 7, C. albicans MRL 34366, pH 7.0, 24 hours, read-out: MIC (50% inhibition)
  MIC: 0.5 µg/mL (≈ 0.685 µM)
pH 7, C. albicans MRL 34366, pH 7.0, 24 hours, read-out: MIC (100% inhibition)
  MIC: 0.5 µg/mL (≈ 0.685 µM)
pH 7, C. albicans MRL 34367, pH 7.0, 24 hours, read-out: MIC (50% inhibition)
  MIC: 0.125 µg/mL (≈ 0.171 µM)
pH 7, C. albicans MRL 34367, pH 7.0, 24 hours, read-out: MIC (100% inhibition)
  MIC: 0.5 µg/mL (≈ 0.685 µM)
pH 7, C. albicans MRL 34372, pH 7.0, 24 hours, read-out: MIC (50% inhibition)
  MIC: 0.25 µg/mL (≈ 0.342 µM)
pH 7, C. albicans MRL 34372, pH 7.0, 24 hours, read-out: MIC (100% inhibition)
  MIC: 0.25 µg/mL (≈ 0.342 µM)
pH 7, C. albicans MRL 34373, pH 7.0, 24 hours, read-out: MIC (50% inhibition)
  MIC: 0.25 µg/mL (≈ 0.342 µM)
pH 7, C. albicans MRL 34373, pH 7.0, 24 hours, read-out: MIC (100% inhibition)
  MIC: 0.25 µg/mL (≈ 0.342 µM)
pH 7, C. albicans MRL 34374, pH 7.0, 24 hours, read-out: MIC (50% inhibition)
  MIC: 0.25 µg/mL (≈ 0.342 µM)
pH 7, C. albicans MRL 34374, pH 7.0, 24 hours, read-out: MIC (100% inhibition)
  MIC: 0.25 µg/mL (≈ 0.342 µM)
pH 7, C. albicans MRL 34385, pH 7.0, 24 hours, read-out: MIC (50% inhibition)
  MIC: 0.25 µg/mL (≈ 0.342 µM)
pH 7, C. albicans MRL 34385, pH 7.0, 24 hours, read-out: MIC (100% inhibition)
  MIC: 0.5 µg/mL (≈ 0.685 µM)
pH 7, C. albicans MRL 34389, pH 7.0, 24 hours, read-out: MIC (50% inhibition)
  MIC: 0.125 µg/mL (≈ 0.171 µM)
pH 7, C. albicans MRL 34389, pH 7.0, 24 hours, read-out: MIC (100% inhibition)
  MIC: 0.25 µg/mL (≈ 0.342 µM)
pH 7, C. albicans MRL 34399, pH 7.0, 24 hours, read-out: MIC (50% inhibition)
  MIC: 0.25 µg/mL (≈ 0.342 µM)
pH 7, C. albicans MRL 34399, pH 7.0, 24 hours, read-out: MIC (100% inhibition)
  MIC: 0.25 µg/mL (≈ 0.342 µM)
pH 7, C. albicans MRL 34408, pH 7.0, 24 hours, read-out: MIC (50% inhibition)
  MIC: 0.5 µg/mL (≈ 0.685 µM)
pH 7, C. albicans MRL 34408, pH 7.0, 24 hours, read-out: MIC (100% inhibition)
  MIC: 4 µg/mL (≈ 5.48 µM)
pH 7, C. albicans MRL 34449, pH 7.0, 24 hours, read-out: MIC (50% inhibition)
  MIC: 0.25 µg/mL (≈ 0.342 µM)
